Literature values, collected in patent US20100167984A1, “Complex between human insulin and an amphiphilic polymer and use of this complex in the preparation of a fast-acting human insulin formulation” (ADOCIA, priority 2008, published 2010).

What was measured:
[1] = due to dissociation equilibria of hexamers; Brange J. et al. 1999
[2] = hexamer form, at 4° C.

## Human insulin: human insulin, assembled in the hexamer form
[1]
  slowing down of action in comparison with a fast-acting insulin analog: approximately 20 minutes
[2]
  stability (storage time): approximately 2 years
